From patent US9512114B2, “Substituted aminopyrimidine compounds and methods of use” (Calitor Sciences, LLC, priority 2013, dated 2016)

Legend:
[1] = Compound stability in rat liver microsomes; format: in vitro ADME; conditions: pH 7.4; for CLint scaled at 5 μM: liver microsomes, in vivo CLint extrapolated from rat liver microsome incubation; for half-life at 5 μM: rat liver microsomes 0.5 mg protein/mL, compound 5 μM, NADPH 1.0 mM, 37° C., read-out: Rat T1/2
Description: (§1) The LC/MS/MS system used in the analysis consists of an Agilent 1200 Series vacuum degasser, binary pump, well-plate autosampler, thermostatted column compartment, the Agilent G6430 Triple Quadrupole Mass Spectrometer with an electrosprayionization (ESI) source. Quantitative analysis was carried out using MRM mode. The parameters for MRM transitions are in the Table A.
(§2) An Agilent XDB-C18, 2.1×30 mm, […] column was used for the analysis. 5 μL of the samples were injected. Analysis condition: The mobile phase was 0.1% formic acid in water (A) and 0.1% formic acid in methanol (B). The flow rate was 0.4 mL/min. And the gradient of Mobile phase was in the Table B.
(§3) Alternatively, an Agilent 6330 series LC/MS/MS spectrometer equipped with G1312A binary pumps, a G1367A autosampler and a G1314C UV detector were used in the analysis. An ESI source was used on the LC/MS/MS spectrometer. The analysis was done in positive ion mode as appropriate and the MRM transition for each analyte was optimized using standard solution. A Capcell MP-C18 100×4.6 mm I.D., […] column (Phenomenex, Torrance, Calif., USA) was used during the analysis. The mobile phase was 5 mM ammonia acetate, 0.1% MeOH in water (A): 5 mM ammonia acetate, 0.1% MeOH in acetonitrile (B) (70:30, v/v). The flow rate was 0.6 mL/min. Column was maintained at ambient temperature. 20 μL of the samples were injected.
(§4) Human or rat liver microsomes incubations were conducted in duplicate in polypropylene tubes. The typical incubation mixtures consisted of human or rat liver microsomes (0.5 mg protein/mL), compounds of interest (5 μM) and NADPH (1.0 mM) in a total volume of 200 μL potassium phosphate buffer (PBS, 100 mM, pH 7.4). Compounds were dissolved in DMSO and diluted with PBS such that the final concentration of DMSO was 0.05%. The enzymatic reactions were commenced with the addition of protein after a 3-min preincubation and incubated in a water bath open to the air at 37° C. Reactions were terminated at various time points (0, 5, 10, 15, 30, 60 min) by adding equal volume of ice-cold acetonitrile. The samples were stored at −80° C. until LC/MS/MS assays.
(§5) The concentrations of compounds in the incubation mixtures of human or rat liver microsomes were determined by a LC/MS/MS method. The ranges of the linearity in the concentration range were determined for each tested compounds.
(§6) A parallel incubation was performed using denatured microsomes as the negative control, and reactions were terminated at various time points (0, 15, 60 min) after incubation at 37° C.
(§7) Dextromethorphan (70 μM) was selected as the positive control, and reactions were terminated at various time points (0, 5, 10, 15, 30, 60 min) after incubation at 37° C. Both positive and negative control samples were included in each assay to ensure the integrity of the microsomal incubation system.
(§8) The concentrations of compounds in human or rat liver microsome incubations were plotted as a percentage of the relevant zero time point control for each reaction. The in vivo CLint were extrapolated (ref.: Naritomi, Y.; Terashita, S.; Kimura, S.; Suzuki, A.; Kagayama, A.; and Sugiyama, Y.; Prediction of human hepatic clearance from in vivo animal experiments and in vitro metabolic studies with liver microsomes from animals and humans. Drug Metab. Dispos., 2001, 29: 1316-1324).

[2] = Compound stability in human liver microsomes; format: in vitro ADME; conditions: pH 7.4; for CLint scaled at 5 μM: liver microsomes, in vivo CLint extrapolated from human liver microsome incubation; for half-life at 5 μM: human liver microsomes 0.5 mg protein/mL, compound 5 μM, NADPH 1.0 mM, 37° C., read-out: Human T1/2
Description: as §1, §2, §3, §4, §5, §6, §7, §8

[3] = Pharmacokinetic profiles in rats; format: in vivo, rat; conditions: for Cl/F / AUC(0-t) / half-life / Vd: iv dosing 1 mg/kg; for F: oral vs iv (iv 1 mg/kg; p.o. generally 5 or 10 mg/kg); for AUC(0-t) / half-life / Vd: rat, plasma; for Vd: read-out: Vss
Description: The compounds disclosed herein are assessed in pharmacokinetic studies in mice, rats, dogs or monkeys. The compounds are administered as a water solution, 2% HPMC+1% TWEEN®80 in water solution, 5% DMSO+5% solutol in saline, 4% MC suspension or capsule. For the intravenous administration, the animals are generally given at 1 or 2 mg/kg dose. For the oral (p.o.) dosing, mice and rats are generally given 5 or 10 mg/kg dose, and dogs and monkeys are generally given 10 mg/kg dose. The blood samples (0.3 mL) are drawn at 0.25, 0.5, 1.0, 2.0, 3.0, 4.0, 6.0, 8.0, 12 and 24 h time points or 0.083, 0.25, 0.5, 1.0, 2.0, 4.0, 6.0, 8.0 and 24 h time points and centrifuged at 3,000 or 4000 rpm for 2 to 10 min. The plasma solutions are collected, stored at −20° C. or −70° C. until analyzed by LC/MS/MS as described above.

PI3K (p110δ/p85α) (h) = PI3K (p110δ/p85α) (h) (Homo sapiens (Human), UniProt O00329); test: PI3K (p110δ/p85α) (h) non-radioactive HTRF kinase assay; format: biochemical; conditions: performed at Millipore UK Ltd
Description: The above assay procedure can be used to determine the IC50 for inhibition and/or the inhibition constant, Ki.
PI3K (p110δ/p85α) (h) [Non-Radioactive Assay]
PI3K (p110δ/p85α) (h) is incubated in assay buffer containing 10 μM phosphatidylinositol-4, 5-bisphosphate and MgATP (concentration as required). The reaction is initiated by the addition of the MgATP mix. After incubation for 30 minutes at room temperature, the reaction is stopped by the addition of stop solution containing EDTA and biotinylated phosphatidylinositol-3,4,5-trisphosphate. Finally, detection buffer is added, which contains europium-labelled anti-GST monoclonal antibody, GST-tagged GRP1 PH domain and streptavidin-allophycocyanin. The plate is then read in timeresolved fluorescence mode and the homogenous time-resolved fluorescence (HTRF) signal is determined according to the formula HTRF=10000×(Em665 nm/Em620 nm).
The kinase assays described herein were performed at Millipore UK Ltd, Dundee Technology Park, Dundee DD2 1SW, UK.

PI3K (p110δ/p85α) (h), sequence (O00329 whole entry): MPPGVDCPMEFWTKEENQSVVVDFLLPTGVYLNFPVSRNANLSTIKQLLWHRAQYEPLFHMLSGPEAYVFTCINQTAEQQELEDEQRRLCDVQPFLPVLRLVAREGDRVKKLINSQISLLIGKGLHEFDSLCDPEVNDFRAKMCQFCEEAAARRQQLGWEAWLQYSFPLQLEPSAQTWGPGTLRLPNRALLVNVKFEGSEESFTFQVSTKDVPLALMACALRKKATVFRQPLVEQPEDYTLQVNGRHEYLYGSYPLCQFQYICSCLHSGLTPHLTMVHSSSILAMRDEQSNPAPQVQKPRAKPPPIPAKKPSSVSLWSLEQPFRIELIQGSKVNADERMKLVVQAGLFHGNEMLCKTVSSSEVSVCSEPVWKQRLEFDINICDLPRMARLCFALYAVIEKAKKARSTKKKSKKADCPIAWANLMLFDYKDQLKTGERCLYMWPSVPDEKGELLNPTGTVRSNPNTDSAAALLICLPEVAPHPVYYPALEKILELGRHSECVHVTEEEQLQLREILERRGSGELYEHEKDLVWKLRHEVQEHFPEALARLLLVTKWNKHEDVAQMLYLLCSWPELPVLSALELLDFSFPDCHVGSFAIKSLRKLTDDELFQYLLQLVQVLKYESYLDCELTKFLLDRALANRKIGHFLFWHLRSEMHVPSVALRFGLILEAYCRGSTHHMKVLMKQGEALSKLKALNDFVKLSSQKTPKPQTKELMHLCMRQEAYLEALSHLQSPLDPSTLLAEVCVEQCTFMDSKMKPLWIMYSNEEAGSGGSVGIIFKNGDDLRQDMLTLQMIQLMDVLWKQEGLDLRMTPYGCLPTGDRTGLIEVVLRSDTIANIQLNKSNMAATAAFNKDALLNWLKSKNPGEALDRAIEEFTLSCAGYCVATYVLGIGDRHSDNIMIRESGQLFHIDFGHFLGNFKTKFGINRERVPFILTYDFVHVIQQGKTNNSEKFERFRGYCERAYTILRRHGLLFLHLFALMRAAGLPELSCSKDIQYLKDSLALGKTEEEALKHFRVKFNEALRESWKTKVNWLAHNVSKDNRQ
PI3K (p110δ/p85α) (h), sequence (P27986 whole entry partner): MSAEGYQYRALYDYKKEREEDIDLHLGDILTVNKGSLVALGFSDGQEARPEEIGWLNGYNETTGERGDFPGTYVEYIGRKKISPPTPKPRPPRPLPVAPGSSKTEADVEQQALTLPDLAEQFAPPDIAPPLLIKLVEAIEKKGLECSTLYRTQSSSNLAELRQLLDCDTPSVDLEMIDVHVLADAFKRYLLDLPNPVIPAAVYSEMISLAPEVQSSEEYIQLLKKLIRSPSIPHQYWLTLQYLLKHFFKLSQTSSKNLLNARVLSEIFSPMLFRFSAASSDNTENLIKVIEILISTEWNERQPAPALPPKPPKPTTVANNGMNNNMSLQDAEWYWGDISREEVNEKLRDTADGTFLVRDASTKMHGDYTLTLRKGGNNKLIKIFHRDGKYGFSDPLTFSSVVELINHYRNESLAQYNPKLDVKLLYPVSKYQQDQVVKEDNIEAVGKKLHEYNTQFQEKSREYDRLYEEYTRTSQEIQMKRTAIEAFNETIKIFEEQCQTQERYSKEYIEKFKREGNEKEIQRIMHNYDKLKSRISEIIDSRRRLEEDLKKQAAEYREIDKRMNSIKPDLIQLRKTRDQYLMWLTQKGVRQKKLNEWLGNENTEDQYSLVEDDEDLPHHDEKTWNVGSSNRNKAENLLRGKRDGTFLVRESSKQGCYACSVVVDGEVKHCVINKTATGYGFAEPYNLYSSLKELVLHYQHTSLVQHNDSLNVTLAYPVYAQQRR

## CC[C@H](Nc1ncnc(N)c1-c1noc(C)n1)c1cc2cccc(F)c2c(=O)n1-c1ccccc1 [Ex. 18, (S)-3-(1-((6-amino-5-(5-methyl-1,2,4-oxadiazol-3-yl)pyrimidin-4-yl)amino)propyl)-8-fluoro-2-phenylisoquinolin-1(2H)-one]
[1]
  CLint scaled at 5 μM: 330 mL/min/kg
  half-life at 5 μM: 7.53 min
[2]
  CLint scaled at 5 μM: 226 mL/min/kg
  half-life at 5 μM: 7.7 min
[3]
  Cl/F: 51.7 mL/min/kg
  F: 38.15%
  AUC(0-t): 323 ng·h/mL
  half-life: 46.5 min
  Vd: 1.66 L/kg
PI3K (p110δ/p85α) (h)
  IC50: 32 nM

## C[C@H](Nc1ncnc(N)c1-c1nnn(C)n1)c1cc2cccc(Cl)c2c(=O)n1C1CC1 [Ex. 12, (S)-3-(1-((6-amino-5-(2-methyl-2H-tetrazol-5-yl)pyrimidin-4-yl)amino)ethyl)-8-chloro-2-cyclopropylisoquinolin-1(2H)-one]
[3]
  Cl/F: 30 mL/min/kg
  F: 32.09%
  AUC(0-t): 555 ng·h/mL
  half-life: 42 min
  Vd: 1.42 L/kg
PI3K (p110δ/p85α) (h)
  IC50: 12 nM

## CC[C@H](Nc1ncnc(N)c1-c1nc(C)no1)c1cc2cccc(F)c2c(=O)n1C1CC1 [Ex. 1, (S)-3-(1-((6-amino-5-(3-methyl-1,2,4-oxadiazol-5-yl)pyrimidin-4-yl)amino)propyl)-2-cyclopropyl-8-fluoroisoquinolin-1(2H)-one]
[1]
  CLint scaled at 5 μM: 219 mL/min/kg
  half-life at 5 μM: 11.3 min
[2]
  CLint scaled at 5 μM: 243 mL/min/kg
  half-life at 5 μM: 10.2 min
[3]
  Cl/F: 93 mL/min/kg
  F: 46.34%
  AUC(0-t): 178 ng·h/mL
  half-life: 37.8 min
  Vd: 3.99 L/kg
PI3K (p110δ/p85α) (h)
  IC50: 5 nM

## CC[C@H](Nc1ncnc(N)c1-c1noc(C)n1)c1cc2cccc(-c3cnn(C)c3)c2c(=O)n1C1CC1 [Ex. 31, (S)-3-(1-((6-amino-5-(5-methyl-1,2,4-oxadiazol-3-yl)pyrimidin-4-yl)amino)propyl)-2-cyclopropyl-8-(1-methyl-1H-pyrazol-4-yl)isoquinolin-1(2H)-one]
[1]
  CLint scaled at 5 μM: 26.1 mL/min/kg
  half-life at 5 μM: 95.2 min
[2]
  CLint scaled at 5 μM: 18.9 mL/min/kg
  half-life at 5 μM: 92.2 min
[3]
  Cl/F: 17.3 mL/min/kg
  F: 139.0%
  AUC(0-t): 934 ng·h/mL
  half-life: 136 min
  Vd: 2.9 L/kg

## CCc1noc(-c2c(N)ncnc2N[C@@H](CC)c2cc3cccc(Cl)c3c(=O)n2C2CC2)n1 [Ex. 22, (S)-3-(1-((6-amino-5-(3-ethyl-1,2,4-oxadiazol-5-yl)pyrimidin-4-yl)amino)propyl)-8-chloro-2-cyclopropylisoquinolin-1(2H)-one]
[1]
  CLint scaled at 5 μM: 259 mL/min/kg
  half-life at 5 μM: 9.58 min
[2]
  CLint scaled at 5 μM: 138 mL/min/kg
  half-life at 5 μM: 12.6 min
[3]
  Cl/F: 99.8 mL/min/kg
  F: 16.23%
  AUC(0-t): 167 ng·h/mL
  half-life: 79.2 min
  Vd: 6.07 L/kg
PI3K (p110δ/p85α) (h)
  IC50: 3 nM

## C[C@H](Nc1ncnc(N)c1-c1ncn(C)n1)c1cc2cccc(Cl)c2c(=O)n1C1CC1 [Ex. 16, (S)-3-(1-((6-amino-5-(1-methyl-1H-1,2,4-triazol-3-yl)pyrimidin-4-yl)amino)ethyl)-8-chloro-2-cyclopropylisoquinolin-1(2H)-one]
[1]
  CLint scaled at 5 μM: 173 mL/min/kg
  half-life at 5 μM: 14.3 min
[2]
  CLint scaled at 5 μM: 219 mL/min/kg
  half-life at 5 μM: 7.92 min
[3]
  Cl/F: 89.3 mL/min/kg
  F: 11.44%
  AUC(0-t): 186 ng·h/mL
  half-life: 36.6 min
  Vd: 2.94 L/kg
PI3K (p110δ/p85α) (h)
  IC50: 190 nM

## CC[C@H](Nc1ncnc(N)c1-c1nc(C)no1)c1cc2cccc(Cl)c2c(=O)n1C1CC1 [Ex. 7, (S)-3-(1-((6-amino-5-(3-methyl-1,2,4-oxadiazol-5-yl)pyrimidin-4-yl)amino)propyl)-8-chloro-2-ccyclopropylisoquinolin-1(2H)-one]
[1]
  CLint scaled at 5 μM: 250 mL/min/kg
  half-life at 5 μM: 9.92 min
[2]
  CLint scaled at 5 μM: 147 mL/min/kg
  half-life at 5 μM: 11.8 min
[3]
  Cl/F: 54.3 mL/min/kg
  F: 42.95%
  AUC(0-t): 307 ng·h/mL
  half-life: 138 min
  Vd: 7.96 L/kg
PI3K (p110δ/p85α) (h)
  IC50: 4 nM

## C[C@H](Nc1ncnc(N)c1-c1nnn(C)n1)c1cc2cccc(-c3cnn(C)c3)c2c(=O)n1-c1ccccc1 [Ex. 29, (S)-3-(1-((6-amino-5-(2-methyl-2H-tetrazol-5-yl)pyrimidin-4-yl)amino)ethyl)-8-(1-methyl-1H-pyrazol-4-yl)-2-phenylisoquinolin-1(2H)-one]
[1]
  CLint scaled at 5 μM: 38.3 mL/min/kg
  half-life at 5 μM: 64.9 min
[2]
  CLint scaled at 5 μM: 19 mL/min/kg
  half-life at 5 μM: 91.5 min
[3]
  Cl/F: 10 mL/min/kg
  F: 80.6%
  AUC(0-t): 1780 ng·h/mL
  half-life: 78 min
  Vd: 0.88 L/kg

## CC[C@H](Nc1ncnc(N)c1-c1nc(C)no1)c1cc2cccc(C)c2c(=O)n1-c1ccccc1 [Ex. 2, (S)-3-(1-((6-amino-5-(3-methyl-1,2,4-oxadiazol-5-yl)pyrimidin-4-yl)amino)propyl)-8-methyl-2-phenylisoquinolin-1(2H)-one]
[1]
  CLint scaled at 5 μM: 418 mL/min/kg
  half-life at 5 μM: 5.94 min
[2]
  CLint scaled at 5 μM: 840 mL/min/kg
  half-life at 5 μM: 2.07 min
[3]
  Cl/F: 79 mL/min/kg
  F: 46.57%
  AUC(0-t): 215 ng·h/mL
  half-life: 69.6 min
  Vd: 4.42 L/kg
PI3K (p110δ/p85α) (h)
  IC50: 2 nM
